# Measurements from PMC7802075 (ACS Infectious Diseases, 2020).
# “Also recorded” adds a separate entry of the source. Where a name gives a salt, the structure may show the parent alone. Read-outs that look alike come from different tables or passages of the source.
# Assays:
# [1] = molecular target: T1, LmjIPCS (inositol phosphorylceramide synthase from L. major) (Leishmania major, UniProt E9AFX2); assay: biochemical; format: biochemical; design: inhibition: dose or concentration left out as unconfirmed; settings: for inhibition: read-out: inhibition LmjIPCS; for LmjIPCS inhibition: secondary dose response
# T1 sequence (E9AFX2 1-338): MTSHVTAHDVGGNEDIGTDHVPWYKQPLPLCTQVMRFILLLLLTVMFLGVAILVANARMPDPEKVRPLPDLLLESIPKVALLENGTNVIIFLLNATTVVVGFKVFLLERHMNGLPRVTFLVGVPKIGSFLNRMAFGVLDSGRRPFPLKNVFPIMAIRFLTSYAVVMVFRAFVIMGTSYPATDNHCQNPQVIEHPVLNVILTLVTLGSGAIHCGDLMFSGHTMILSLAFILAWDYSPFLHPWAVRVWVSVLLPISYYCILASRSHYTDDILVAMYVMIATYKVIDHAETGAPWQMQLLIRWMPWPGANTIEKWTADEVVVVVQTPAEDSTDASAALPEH
# [2] = tested on: clemastine fumarate-resistant L. major promastigotes (cl.C and cl.D); format: cell-based, Leishmania major
# [3] = tested on: L. major (FV1) promastigotes; assay: Antipromastigote resazurin assay, L. major (FV1) wild type; format: cell-based, Leishmania major; settings: for EC50: Leishmania major
# [4] = tested on: L. major add-back (AB) line promastigotes [pXNEO LmLCB2]; assay: microbe, parasite or virus in culture; format: cell-based; settings: Leishmania major, 48 h
# [5] = tested on: L. major ΔLmjLCB2 mutant promastigotes; assay: microbe, parasite or virus in culture; format: cell-based; settings: Leishmania major; sphingolipid-free mutant, 48 h; read-out: EC50 ΔLmjLCB2 parasites
# [6] = in vivo; cited from earlier work
# [7] = tested on: BMDM uninfected macrophages, nitrite formation; assay: Nitric oxide assay (Griess) in uninfected macrophages; format: cell-based, mouse; settings: serial dilutions, 48 h
# Protocol: The release of nitric oxide was measured in the culture supernatant by the Griess method, as described previously.[81] The absorbance was measured at 570 nm, and the nitrite concentration was determined using a standard curve of sodium nitrite (0 to 50 μM). The positive control was macrophages incubated with 1 μg mL^–1 LPS (Sigma-Aldrich, Brazil) and 10% conditioned medium of lymphocytes as a source of IFN. Negative controls were cells treated with DMSO and untreated cells.
# [8] = tested on: wild type Leishmania major promastigotes; format: cell-based
# [9] = in vivo; cited from earlier work; remark: listed apart in the source
# [10] = in vivo; cited from earlier work; remark: listed apart in the source
# [11] = tested on: L. amazonensis intracellular amastigotes in BMDM from C57BL/6 WT or P2X7R KO mice
# [12] = tested on: Leishmania species (L. major, L. amazonensis, L. donovani, L. infantum); assay: Dose response positive control, each Leishmania species; format: cell-based, Leishmania spp.; settings: for each species
# Protocol: […]. Resazurin solution (10 μL) was then added and the plate, incubated at 26 °C for 4 h prior to measurement using a fluorescence plate reader (Ex555/Em585). EC50 values were calculated using sigmoidal regression analysis (GraphPad Prism).
# […]. After 24 h of infection, serial dilutions of the test compounds in medium were added and the slides were incubated at 37 °C and 5% CO2 for 5 days (L. major) or 2 days (L. amazonensis). Amphotericin B and miltefosine were used as controls. At the end, cells were fixed with methanol and stained with Giemsa solution, and the intracelular amastigotes were counted using a light microscope. Results were expressed as the percentage reduction of intracellular amastigotes (compared with untreated control wells). EC50 values were calculated using sigmoidal regression analysis (GraphPad Prism).
# [13] = L. major promastigotes, dose response
# [14] = secondary dose response, L. major (FV1), read-out: EC50 against L. major promastigotes
# [15] = NINDS set screen against L. major promastigotes, single concentration printed as 10mM
structure (smiles),measurement,setting,value
"NC[C@@H]1O[C@H](O[C@H]2[C@@H](O)[C@H](O[C@@H]3[C@@H](O)[C@H](N)C[C@H](N)[C@H]3O[C@H]3O[C@H](CO)[C@@H](O)[C@H](O)[C@H]3N)O[C@@H]2CO)[C@H](N)[C@@H](O)[C@@H]1O [paromomycin, reference compound]",inhibition,[1],-17%
same,cross-resistance in clemastine fumarate-resistant L. major clones,[2],no evidence for cross-resistance
"CCCCCCCCCCCCCCCCOP(=O)([O-])OCC[N+](C)(C)C [miltefosine, reference compound]",inhibition,[1],3.35%
same,cross-resistance in clemastine fumarate-resistant L. major clones,[2],no evidence for cross-resistance
"C[C@@H]1C[C@@H]([C@H](O)CC2CC(=O)NC(=O)C2)C(=O)[C@@H](C)C1 [cycloheximide, reference compound]",inhibition at 20000 µM,[1]; read-out: 20mM inhibition LmjIPCS,9%
same,EC50,"[3]; FV1 WT, 48 h, compared with mutant lines, read-out: EC50 wild type L. major promastigotes",0.02 µM
same,EC50,[4],0.02 µM
same,EC50,[5],0.02 µM
"N=C(N)c1ccc(OCCCCCOc2ccc(C(=N)N)cc2)cc1 [pentamidine 9, pentamidine, reference compound]",10mM inhibition L. major,[3],59%
same,ED50 vs L. major,[3],2050 µM
same,cross-resistance in clemastine fumarate-resistant L. major clones,[2],no evidence for cross-resistance; also recorded: statistically significant hypersensitivity
"CN1CCC[C@@H]1CCO[C@](C)(c1ccccc1)c1ccc(Cl)cc1 [clemastine fumarate 1, clemastine fumarate]",oral LD50 (mouse),[6],730 mg.kg^–1
same,nitrite formation (NO levels),[7],no significant effect
same,nitrite formation (NO levels),[7]; listed as clemastine,statistically non-significant
same,cell density,[8],no change in cell density
same,volume of distribution,[9],9.5 ± 3.8 L kg^–1
same,oral LD50 (rat),[10],3550 mg.kg^–1
same,"effect of addition of extracellular ATP, P2X7R KO macrophages",[11],did not show any effect
C[C@@H]1[C@H](O)[C@@H](C)/C=C/C=C/C=C/C=C/C=C/C=C/C=C/[C@H](O[C@@H]2O[C@H](C)[C@@H](O)[C@H](N)[C@@H]2O)C[C@@H]2O[C@](O)(C[C@@H](O)C[C@@H](O)[C@H](O)CC[C@@H](O)C[C@@H](O)CC(=O)O[C@H]1C)C[C@H](O)[C@H]2C(=O)O [amphotericin B],20mM inhibition LmjIPCS,[1],41%
same,EC50,[12],0.027 ± 0.003 µM
same,cross-resistance in clemastine fumarate-resistant L. major clones,[2],no evidence for cross-resistance
"CCCCCCCCNC(C)C(O)c1ccc(SC(C)C)cc1 (stereo not drawn) [suloctidil 15, suloctidil, reference compound]",IC50,[1],3.67 µM
same,20mM inhibition LmjIPCS,"[1]; NINDS set screen, single concentration printed as 20mM",81%
same,LmjIPCS inhibition,[1],confirmed
same,ED50 vs L. major,[3]; [13],1330 µM
same,EC50,[3]; [14],> 1 µM
same,10mM inhibition L. major,[3]; [15],74%
"O=c1[nH]c2ccccc2n1C1CCN(CCCC(c2ccc(F)cc2)c2ccc(F)cc2)CC1 [pimozide 10, pimozide, reference compound]",20mM inhibition LmjIPCS,[1],77%
same,IC50,[1],4.14 µM
same,LmjIPCS inhibition,[1],confirmed
same,ED50 vs L. major,[3]; [13],22900 µM
same,EC50,[3]; [14],> 1 µM
same,10mM inhibition L. major,[3]; [15],56%
